Measured values as given in ChEMBL document CHEMBL1143444, “Dual EGFR/ErbB-2 inhibitors from novel pyrrolidinyl-acetylenic thieno[3,2-d]pyrimidines” (Bioorg Med Chem Lett, 2008).

Legend:
HN5 = test: Antiproliferative activity against human HN5 cells overexpressing EGFR after 3 days by methylene blue staining; conditions: HN5, 72 h
BT-474 = test: Antiproliferative activity against human BT474 cells overexpressing ErbB2 after 3 days by methylene blue staining; conditions: BT-474, 72 h
[1] = Antiproliferative activity against human foreskin fibroblast after 3 days by methylene blue staining; conditions: 72 h
[2] = target: Epidermal growth factor receptor (Homo sapiens, UniProt P00533); test: Inhibition of EGFR kinase
Chain of Epidermal growth factor receptor (P00533 whole entry): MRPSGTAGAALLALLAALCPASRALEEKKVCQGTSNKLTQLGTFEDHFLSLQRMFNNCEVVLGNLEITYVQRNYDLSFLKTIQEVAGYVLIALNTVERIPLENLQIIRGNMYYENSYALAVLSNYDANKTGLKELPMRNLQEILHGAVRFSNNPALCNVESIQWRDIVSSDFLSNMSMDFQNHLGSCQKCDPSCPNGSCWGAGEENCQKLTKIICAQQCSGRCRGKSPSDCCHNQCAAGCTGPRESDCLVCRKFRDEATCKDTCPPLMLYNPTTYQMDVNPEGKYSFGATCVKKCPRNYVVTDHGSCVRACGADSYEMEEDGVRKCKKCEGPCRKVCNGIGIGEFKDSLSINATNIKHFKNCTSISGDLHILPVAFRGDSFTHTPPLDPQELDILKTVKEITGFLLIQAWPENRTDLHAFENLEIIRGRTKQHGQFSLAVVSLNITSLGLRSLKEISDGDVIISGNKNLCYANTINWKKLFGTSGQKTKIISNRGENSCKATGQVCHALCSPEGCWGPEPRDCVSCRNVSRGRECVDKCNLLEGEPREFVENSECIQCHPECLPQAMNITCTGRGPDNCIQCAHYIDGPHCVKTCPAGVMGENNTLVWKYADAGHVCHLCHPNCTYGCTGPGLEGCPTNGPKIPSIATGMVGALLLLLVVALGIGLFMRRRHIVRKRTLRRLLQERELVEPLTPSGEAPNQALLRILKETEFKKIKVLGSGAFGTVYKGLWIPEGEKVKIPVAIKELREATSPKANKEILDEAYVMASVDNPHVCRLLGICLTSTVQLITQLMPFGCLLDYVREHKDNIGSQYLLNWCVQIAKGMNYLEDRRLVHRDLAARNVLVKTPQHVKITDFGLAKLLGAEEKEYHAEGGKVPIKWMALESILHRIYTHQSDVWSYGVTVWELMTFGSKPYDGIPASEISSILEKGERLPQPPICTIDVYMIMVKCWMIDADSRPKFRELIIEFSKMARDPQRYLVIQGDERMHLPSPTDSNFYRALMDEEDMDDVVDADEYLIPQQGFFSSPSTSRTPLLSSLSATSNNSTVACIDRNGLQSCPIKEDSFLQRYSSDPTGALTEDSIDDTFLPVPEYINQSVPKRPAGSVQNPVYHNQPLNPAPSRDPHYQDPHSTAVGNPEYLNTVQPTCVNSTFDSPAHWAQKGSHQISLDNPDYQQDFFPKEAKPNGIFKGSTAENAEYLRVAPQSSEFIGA

[3] = target: Receptor tyrosine-protein kinase erbB-2 (Homo sapiens, UniProt P04626)
Chain of Receptor tyrosine-protein kinase erbB-2 (P04626 whole entry): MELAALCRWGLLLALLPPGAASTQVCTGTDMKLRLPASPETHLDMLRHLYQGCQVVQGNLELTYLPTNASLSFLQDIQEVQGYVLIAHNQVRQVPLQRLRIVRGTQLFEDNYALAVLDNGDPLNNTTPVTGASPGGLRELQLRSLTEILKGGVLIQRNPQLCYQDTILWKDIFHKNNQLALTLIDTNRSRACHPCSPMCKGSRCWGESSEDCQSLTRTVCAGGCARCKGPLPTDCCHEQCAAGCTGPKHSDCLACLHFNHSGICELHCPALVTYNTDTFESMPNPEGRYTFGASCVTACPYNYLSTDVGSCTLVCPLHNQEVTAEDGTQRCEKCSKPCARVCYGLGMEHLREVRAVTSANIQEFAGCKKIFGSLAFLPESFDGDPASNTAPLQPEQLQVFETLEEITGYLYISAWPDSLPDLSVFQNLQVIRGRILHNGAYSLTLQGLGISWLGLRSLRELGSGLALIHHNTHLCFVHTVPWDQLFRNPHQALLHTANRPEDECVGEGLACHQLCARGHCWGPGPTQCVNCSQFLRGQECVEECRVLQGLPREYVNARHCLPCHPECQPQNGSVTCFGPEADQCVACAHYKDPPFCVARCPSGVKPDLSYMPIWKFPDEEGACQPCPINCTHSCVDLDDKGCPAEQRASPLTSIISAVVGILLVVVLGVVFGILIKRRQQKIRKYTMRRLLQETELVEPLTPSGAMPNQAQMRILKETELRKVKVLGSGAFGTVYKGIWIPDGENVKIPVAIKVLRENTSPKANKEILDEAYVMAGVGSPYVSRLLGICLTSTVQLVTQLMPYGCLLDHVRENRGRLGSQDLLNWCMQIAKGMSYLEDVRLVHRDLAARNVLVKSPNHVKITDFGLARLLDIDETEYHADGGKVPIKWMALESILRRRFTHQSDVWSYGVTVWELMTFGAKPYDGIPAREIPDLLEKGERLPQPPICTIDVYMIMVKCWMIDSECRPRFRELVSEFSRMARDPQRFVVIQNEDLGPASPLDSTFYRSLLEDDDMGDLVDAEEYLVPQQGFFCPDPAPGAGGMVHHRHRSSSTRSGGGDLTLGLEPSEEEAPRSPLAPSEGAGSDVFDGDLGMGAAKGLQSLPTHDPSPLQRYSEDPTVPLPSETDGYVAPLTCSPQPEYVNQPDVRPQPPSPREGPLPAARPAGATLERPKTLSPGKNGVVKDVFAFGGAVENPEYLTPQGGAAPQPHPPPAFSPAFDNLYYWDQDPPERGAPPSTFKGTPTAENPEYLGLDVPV
Description: Inhibition of ErbB2 kinase

Mus musculus = test: Dose normalized AUC in po dosed mouse; format: ADME, organism-based; conditions: in vivo

Compound | IC50 (HN5) | IC50 (BT-474) | IC50 [1] | IC50 [2] | IC50 [3] | AUC (Mus musculus)
CS(=O)(=O)O[C@H]1CN[C@H](C#Cc2cc3ncnc(Nc4ccc(OCc5cccc(F)c5)c(Cl)c4)c3s2)C1 | 380 nM | 86 nM | > 1000 nM | 81 nM | 40 nM | –
CCS(=O)(=O)N[C@H]1CN[C@H](C#Cc2cc3ncnc(Nc4ccc(OCc5cccc(F)c5)c(Cl)c4)c3s2)C1 | 127 nM | 42 nM | > 1000 nM | 50 nM | – | –
COC(=O)N1CCC[C@@H]1C#Cc1cc2ncnc(Nc3ccc(OCc4cccc(F)c4)c(Cl)c3)c2s1 | 590 nM | 1700 nM | > 1000 nM | 140 nM | 120 nM | –
Fc1cccc(COc2ccc(Nc3ncnc4cc(C#C[C@H]5CCCN5)sc34)cc2Cl)c1 | 238 nM | 94 nM | > 1000 nM | – | – | –
CCO[C@H]1CN[C@H](C#Cc2cc3ncnc(Nc4ccc(OCc5cccc(F)c5)c(Cl)c4)c3s2)C1 | 99 nM | 45 nM | > 1000 nM | 115 nM | 98 nM | –
CNC(=O)O[C@H]1CN[C@H](C#Cc2cc3ncnc(Nc4ccc(OCc5cccc(F)c5)c(Cl)c4)c3s2)C1 | 58 nM | 28 nM | > 1000 nM | 50 nM | 20 nM | 18 ng·kg·h/mg/mL
CCC(=O)O[C@H]1CN[C@H](C#Cc2cc3ncnc(Nc4ccc(OCc5cccc(F)c5)c(Cl)c4)c3s2)C1 | 52 nM | 18 nM | > 1000 nM | 63 nM | 90 nM | –
CC(=O)N1CCC[C@@H]1C#Cc1cc2ncnc(Nc3ccc(OCc4cccc(F)c4)c(Cl)c3)c2s1 | 37 nM | 670 nM | > 1000 nM | 58 nM | 38 nM | –
O[C@H]1CN[C@H](C#Cc2cc3ncnc(Nc4ccc(OCc5cccc(F)c5)c(Cl)c4)c3s2)C1 | – | 39 nM | > 1000 nM | – | 11 nM | 9 ng·kg·h/mg/mL
COCCN1CCC[C@@H]1C#Cc1cc2ncnc(Nc3ccc(OCc4cccc(F)c4)c(Cl)c3)c2s1 | 190 nM | – | > 1000 nM | 130 nM | – | –
Fc1cccc(COc2ccc(Nc3ncnc4cc(C#C[C@@H]5CCCN5)sc34)cc2Cl)c1 | 536 nM | 205 nM | > 1000 nM | 109 nM | 54 nM | –
CN(C)C(=O)O[C@H]1CN[C@H](C#Cc2cc3ncnc(Nc4ccc(OCc5cccc(F)c5)c(Cl)c4)c3s2)C1 [GSK-182497A] | – | 30 nM | > 1000 nM | – | – | –
CS(=O)(=O)N1CCC[C@@H]1C#Cc1cc2ncnc(Nc3ccc(OCc4cccc(F)c4)c(Cl)c3)c2s1 | 550 nM | 650 nM | > 1000 nM | 120 nM | 88 nM | –
CCNC(=O)O[C@H]1CN[C@H](C#Cc2cc3ncnc(Nc4ccc(OCc5cccc(F)c5)c(Cl)c4)c3s2)C1 [GSK-192082A] | 95 nM | 30 nM | > 1000 nM | 32 nM | – | 61 ng·kg·h/mg/mL
O=C(O[C@H]1CN[C@H](C#Cc2cc3ncnc(Nc4ccc(OCc5cccc(F)c5)c(Cl)c4)c3s2)C1)N1CCOCC1 [GW869810X] | – | 30 nM | > 1000 nM | – | – | –
CCOC(=O)N[C@H]1CN[C@H](C#Cc2cc3ncnc(Nc4ccc(OCc5cccc(F)c5)c(Cl)c4)c3s2)C1 | 113 nM | 40 nM | > 1000 nM | 60 nM | 78 nM | –
CCOC(=O)O[C@H]1CN[C@H](C#Cc2cc3ncnc(Nc4ccc(OCc5cccc(F)c5)c(Cl)c4)c3s2)C1 | 200 nM | 34 nM | > 1000 nM | 141 nM | 135 nM | –
